Experimental data reported in patent US11180470B2, “Herbicidal pyrimidine compounds” (BASF SE, priority 2016, dated 2021).

Experiments:
[1] = system: AMARE; assay: greenhouse experiment, post-emergence treatment; type: in vivo, Amaranthus retroflexus; conditions: post-emergence method, scale from 0 to 100
Source text: (§1) The culture containers used were plastic flowerpots containing loamy sand with approximately 3.0% of humus as the substrate. The seeds of the test plants were sown separately for each species.
(§2) For the post-emergence treatment, the test plants were first grown to a height of 3 to 15 cm, depending on the plant habit, and only then treated with the active ingredients which had been suspended or emulsified in water. For this purpose, the test plants were either sown directly and grown in the same containers, or they were first grown separately as seedlings and transplanted into the test containers a few days prior to treatment.
(§3) Depending on the species, the plants were kept at 10-25° C. or 20-35° C., respectively.
(§4) The test period extended over 2 to 4 weeks. During this time, the plants were tended, and their response to the individual treatments was evaluated.
(§5) Evaluation was carried out using a scale from 0 to 100. 100 means no emergence of the plants, or complete destruction of at least the aerial moieties, and 0 means no damage, or normal course of growth. A good herbicidal activity is given at values of at least 70 and a very good herbicidal activity is given at values of at least 85.
(§6) The plants used in the greenhouse experiments were of the following species: […]

[2] = system: ECHCG; assay: greenhouse experiment, post-emergence treatment; type: in vivo, Echinocloa crus-galli; conditions: post-emergence method, scale from 0 to 100
Description: The seeds of the test plants were sown separately for each species. […] For this purpose, the test plants were either sown directly and grown in the same containers, or they were first grown separately as seedlings and transplanted into the test containers a few days prior to treatment. Depending on the species, the plants were kept at 10-25° C. or 20-35° C., respectively. The test period extended over 2 to 4 weeks. During this time, the plants were tended, and their response to the individual treatments was evaluated. Evaluation was carried out using a scale from 0 to 100. 100 means no emergence of the plants, or complete destruction of at least the aerial moieties, and 0 means no damage, or normal course of growth. A good herbicidal activity is given at values of at least 70 and a very good herbicidal activity is given at values of at least 85. The plants used in the greenhouse experiments were of the following species: [table]

[3] = system: APESV; assay: greenhouse experiment, pre-emergence treatment; type: in vivo, Apera spica-venti; conditions: pre-emergence method, application rate 2000 g/ha, scale from 0 to 100
Source text: (§7) The seeds of the test plants were sown separately for each species. For the pre-emergence treatment, the active ingredients, which had been suspended or emulsified in water, were applied directly after sowing by means of finely distributing nozzles. The containers were irrigated gently to promote germination and growth and subsequently covered with transparent plastic hoods until the plants had rooted. This cover caused uniform germination of the test plants, unless this had been impaired by the active ingredients. Depending on the species, the plants were kept at 10-25° C. or 20-35° C., respectively. The test period extended over 2 to 4 weeks. During this time, the plants were tended, and their response to the individual treatments was evaluated. Evaluation was carried out using a scale from 0 to 100. 100 means no emergence of the plants, or complete destruction of at least the aerial moieties, and 0 means no damage, or normal course of growth. A good herbicidal activity is given at values of at least 70 and a very good herbicidal activity is given at values of at least 85. The plants used in the greenhouse experiments were of the following species: [table]

[4] = system: ECHCG; assay: greenhouse experiment, pre-emergence treatment; type: in vivo, Echinocloa crus-galli; conditions: pre-emergence method, application rate 2000 g/ha, scale from 0 to 100
Source text: as §7

[5] = system: ALOMY; assay: greenhouse experiment, post-emergence treatment; type: in vivo, Alopecurus myosuroides; conditions: post-emergence method, application rate 2000 g/ha, scale from 0 to 100
Source text: as §1, §2, §3, §4, §5, §6

[6] = system: AVEFA; assay: greenhouse experiment, post-emergence treatment; type: in vivo, Avena fatua; conditions: post-emergence method, application rate 2000 g/ha, scale from 0 to 100
Source text: as §1, §2, §3, §4, §5, §6

SMILES	herbicidal activity against AMARE ([1]; application rate 2000 g/ha)	herbicidal activity against ECHCG ([2]; application rate 2000 g/ha)	herbicidal activity against APESV [3]	herbicidal activity against ECHCG [4]	herbicidal activity against ALOMY [5]	herbicidal activity against AVEFA [6]	herbicidal activity against AMARE ([1]; application rate 1000 g/ha)	herbicidal activity against ECHCG ([2]; application rate 1000 g/ha)
Cc1ccsc1-c1cnc(C2CC2)nc1C(=O)O [Example 3]	very good (a very good herbicidal activity is given at values of at least 85)	very good (a very good herbicidal activity is given at values of at least 85)	very good (a very good herbicidal activity is given at values of at least 85)	very good (a very good herbicidal activity is given at values of at least 85)	–	–	–	–
COC(=O)c1nc(C2CC2)ncc1-c1occc1C(F)F [Example 17]	very good (a very good herbicidal activity is given at values of at least 85)	–	–	–	–	–	–	–
COC(=O)c1nc(C2CC2)ncc1-c1cnccc1Br [Example 32]	very good (a very good herbicidal activity is given at values of at least 85)	–	very good (a very good herbicidal activity is given at values of at least 85)	very good (a very good herbicidal activity is given at values of at least 85)	–	–	–	–
O=C(O)c1nc(C2CC2)ncc1-c1ncccc1I [Example 39]	–	good (A good herbicidal activity is given at values of at least 70)	very good (a very good herbicidal activity is given at values of at least 85)	very good (a very good herbicidal activity is given at values of at least 85)	good (A good herbicidal activity is given at values of at least 70)	very good (a very good herbicidal activity is given at values of at least 85)	–	–
O=Cc1ccoc1-c1cnc(C2CC2)nc1C(=O)O [Example 40]	very good (a very good herbicidal activity is given at values of at least 85)	–	–	–	–	–	–	–
O=C(O)c1nc(C2CC2)ncc1-c1ncc(F)cc1Cl [Example 42]	–	very good (a very good herbicidal activity is given at values of at least 85)	very good (a very good herbicidal activity is given at values of at least 85)	very good (a very good herbicidal activity is given at values of at least 85)	very good (a very good herbicidal activity is given at values of at least 85)	very good (a very good herbicidal activity is given at values of at least 85)	–	–
COC(=O)c1nc(OC)ncc1-c1ncccc1F [Example 46]	good (A good herbicidal activity is given at values of at least 70)	–	–	–	–	–	–	–
CCc1ncc(-c2ncc(F)cc2Br)c(C(=O)O)n1 [Example 54]	–	–	–	–	–	–	very good (a very good herbicidal activity is given at values of at least 85)	very good (a very good herbicidal activity is given at values of at least 85)
O=C(O)c1nc(C2CC2)ncc1-c1nc(C(F)(F)F)ccc1F [Example 62]	–	very good (a very good herbicidal activity is given at values of at least 85)	very good (a very good herbicidal activity is given at values of at least 85)	very good (a very good herbicidal activity is given at values of at least 85)	very good (a very good herbicidal activity is given at values of at least 85)	very good (a very good herbicidal activity is given at values of at least 85)	–	–
O=C(O)c1nc(C2CC2)ncc1-c1cc(C(F)(F)F)ncc1Cl [Example 64]	–	good (A good herbicidal activity is given at values of at least 70)	very good (a very good herbicidal activity is given at values of at least 85)	very good (a very good herbicidal activity is given at values of at least 85)	very good (a very good herbicidal activity is given at values of at least 85)	very good (a very good herbicidal activity is given at values of at least 85)	–	–
